Data set [1] concerns spontaneous hypertensive rats (SHR). The data set can be described thus: Hypotensive Action: systolic pressure from tail artery of SHR after oral administration 10 mg/Kg once a day for 2 days. The conditions noted are these: oral 10 mg/Kg, * = significant vs control, P = 0.01. It is filed as in vivo, rat.
Data set [2] has the same test system. The data set is described as above. It is filed as in vivo, rat. The conditions noted are these: oral 10 mg/Kg, * = significant vs control, P = 0.01. Here is the method:
A test compound suspended in a gum arabic solution was orally administered once a day, at a dose of 10 mg/Kg (body weight), for 2 days, to groups of spontaneous hypertensive rats (hereinafter referred to as "SHR") (about 30 weeks old; systolic pressure=about 230 mm Hg), each group consisting of 6 rats.
The systolic pressure was measured from the tail artery of SHR under no anesthesia before the administration and 6 hours after the time of administration by using a continuous tonometer (Shimazu Tonometer Model SCS-301 manufactured by Shimazu Seisakusho K.K.). An aqueous solution of gum arabic alone was administered to the rats of the control group.
This is another data set of the same source.

The test system of data set [3] is rats of the SD series. The data set is described as follows: Acute Toxicity: LD50 in rats of the SD series, 14 days observation. In kind it is in vivo. The settings on record: female. An excerpt: (§1) Groups of rats of the SD series (body weight=160-280 g; about 8 weeks old), each group consisting of 5 rats, were used. After administration of the test compound, the death or survival was examined during a period of 14 days to determine the LD50 value.

Test in data set [4]: as above
It is filed as in vivo. The settings on record: rat, in vivo, male.
Excerpt: as §1

The mark [5] stands for this setting: ip, abdominal administration, read-out: LD50, Abdominal Administration, male.
The mark [6] stands for this setting: oral, read-out: LD50, Oral Administration, male.

This is an account of results in patent US4350705A, “Cyclohexane derivatives, process for preparation thereof and medicines containing these cyclohexane derivatives” (Eisai Co., Ltd., priority 1979, dated 1982).

Where two headings read alike, the source gives them in different places. Bounds are passed on as bounds.

As to `COc1ccccc1C1CC(=O)C(C(=O)CCc2ccc3c(c2)OCO3)C(=O)C1` (stereo not drawn), the “Blood Pressure (mm Hg) on Second Day, after 24 hours” value (“Blood Pressure … after 24 hours” below) in data set [1] was 220 ± 6 mm Hg. Besides, in data set [2], the “Blood Pressure (mm Hg) on First Day, after 6 hours” value (shortened to “Blood Pressure (mm Hg) on First Day”) came to 210 ± 5 mm Hg; the “Blood Pressure (mm Hg) on Second Day, after 6 hours” value is reported as 205 ± 5 mm Hg; the “Blood Pressure (mm Hg) on Second Day, before administration” value (shortened to “Blood Pressure … before administration”) turned out to be 220 ± 6 mm Hg.
For the compound `CC1(C)Oc2ccc(CCC(=O)C3C(=O)CC(c4ccccc4)CC3=O)cc2O1` (stereo not drawn), in data set [1], the “Blood Pressure … after 24 hours” value was found to be 192 ± 7 mm Hg. In addition, in data set [2], the “Blood Pressure (mm Hg) on First Day” value was 207 ± 3 mm Hg; the “Blood Pressure (mm Hg) on Second Day, after 6 hours” value came to 190 ± 5 mm Hg; the “Blood Pressure … before administration” value was 202 ± 7 mm Hg.
For `O=C(CCc1ccc2c(c1)OC(c1ccccc1)(c1ccccc1)O2)C1C(=O)CC(c2ccccc2)CC1=O` (stereo not drawn), in data set [1], the “Blood Pressure … after 24 hours” value is 208 ± 5 mm Hg. In addition, in data set [2], the “Blood Pressure (mm Hg) on First Day” value stood at 202 ± 5 mm Hg; the “Blood Pressure (mm Hg) on Second Day, after 6 hours” value was determined as 192 ± 5 mm Hg; the “Blood Pressure … before administration” value is listed as 210 ± 10 mm Hg.
Taken in the same sequence, the figures for `COc1ccc(CCC(=O)C2C(=O)CC(c3ccccc3)CC2=O)cc1` (stereo not drawn) were 212 ± 6 mm Hg, 209 ± 5 mm Hg, 210 ± 5 mm Hg and 213 ± 6 mm Hg.
The corresponding values for `O=C(CCc1ccccc1Cl)C1C(=O)CC(c2ccccc2)CC1=O` (stereo not drawn) are 193 ± 1 mm Hg, 200 ± 3 mm Hg, 213 ± 4 mm Hg and 208 ± 9 mm Hg.
`O=C(CCc1ccc(O)c(O)c1)C1C(=O)CC(c2ccccc2)CC1=O` (stereo not drawn): the “Blood Pressure … after 24 hours” value in data set [1] is listed as 205 ± 5 mm Hg. In data set [2], the “Blood Pressure (mm Hg) on First Day” value came to 204 ± 5 mm Hg; the “Blood Pressure (mm Hg) on Second Day, after 6 hours” value came out at 200 ± 5 mm Hg; the “Blood Pressure … before administration” value came to 209 ± 5 mm Hg.
The corresponding values for `CC(=O)Oc1ccc(CCC(=O)C2C(=O)CC(c3ccccc3)CC2=O)cc1OC(C)=O` (stereo not drawn) are 212 ± 5 mm Hg, 195 ± 10 mm Hg, 195 ± 10 mm Hg and 222± 5 mm Hg.
The corresponding values for `COc1ccc(C2CC(=O)C(C(=O)CCc3ccc(O)c(O)c3)C(=O)C2)cc1` (stereo not drawn) are 228 ± 2 mm Hg, 212 ± 3 mm Hg, 220 ± 1 mm Hg and 225 ± 1 mm Hg.
Taken in the same sequence, the figures for `O=C(Cc1ccc(Cl)cc1)C1C(=O)CC(c2ccccc2)CC1=O` (stereo not drawn) were 222 ± 4 mm Hg, 215 ± 1 mm Hg, 215 ± 2 mm Hg and 217 ± 4 mm Hg.
As for `O=C(CCc1ccc2c(c1)OCO2)C1C(=O)CC(c2ccccc2)CC1=O` (stereo not drawn) [drawing 20], the “Blood Pressure … after 24 hours” value in data set [1] turned out to be 207 ± 7 mm Hg. Further, in data set [2], the “Blood Pressure (mm Hg) on First Day” value turned out to be 205 ± 7 mm Hg; the “Blood Pressure (mm Hg) on Second Day, after 6 hours” value was 204 ± 6 mm Hg; the “Blood Pressure … before administration” value came to 218 ± 7 mm Hg.
In the case of `Cc1ccc(C2CC(=O)C(C(=O)CCc3ccc4c(c3)OCO4)C(=O)C2)cc1` (stereo not drawn) [drawing 21], in data set [1], the “Blood Pressure … after 24 hours” value was determined as 192 ± 5 mm Hg. In data set [2], the “Blood Pressure (mm Hg) on First Day” value amounted to 198 ± 5 mm Hg; the “Blood Pressure (mm Hg) on Second Day, after 6 hours” value worked out at 188 ± 5 mm Hg; the “Blood Pressure … before administration” value was 200 ± 10 mm Hg.
The corresponding values for `O=C(Cc1ccccc1)C1C(=O)CC(c2ccccc2)CC1=O` (stereo not drawn) [drawing 31] are 193 ± 7 mm Hg, 183 ± 3 mm Hg, 183 ± 3 mm Hg and 203 ± 3 mm Hg.
As to `O=C(CCc1ccc2c(c1)OCO2)C1C(=O)CC(c2ccccc2)CC1=O` (stereo not drawn) [drawing 33], in data set [3], the “LD50, Abdominal Administration, female” value was greater than 500 and the “LD50, Oral Administration, female” value was greater than 4000. Further, in data set [4] (setting [5]), the LD50 at 336 h was greater than 500 mg/kg. The LD50 at 336 h in data set [4] (setting [6]) is greater than 4000 mg/kg.
Regarding `Cc1ccc(C2CC(=O)C(C(=O)CCc3ccc4c(c3)OCO4)C(=O)C2)cc1` (stereo not drawn) [drawing 34], in data set [3], the “LD50, Abdominal Administration, female” value is given as greater than 500. Also, in data set [3], the “LD50, Oral Administration, female” value is greater than 4000. Also, the LD50 at 336 h in data set [4] (setting [5]) was greater than 500 mg/kg; in data set [4] (setting [6]) it was greater than 4000 mg/kg.
Taken in the same sequence, the figures for `O=C(Cc1ccccc1)C1C(=O)CC(c2ccccc2)CC1=O` (stereo not drawn) [drawing 35] were greater than 500, greater than 4000, greater than 500 mg/kg and greater than 4000 mg/kg.
